Data reported in US4200642A, “Spiro-oxazolidindiones” (Pfizer Inc., priority 1978, dated 1980).
“And” between values parts separate entries of the source, which are not always exact repeats. Equal values may be shown once.

Key:
aldose reductase = target: T1, aldose reductase (Bos taurus, UniProt P16116); assay: inhibition of aldose reductase enzyme activity (partially purified enzyme from calf lens); format: biochemical; conditions: / indicates results of duplicate tests; for inhibition at 1 µM: 10^-6 M
T1 construct: partially purified aldose reductase enzyme obtained from calf lens; from tissue; host or cells: calf lens
Procedure: Spiro-oxazolidindiones prepared as described in the previous examples were tested for their ability to reduce or inhibit aldose reductase enzyme activity, following the procedure described in U.S. Pat. No. 3,821,383 and based on the procedure of Hayman et al., Journal of Biological Chemistry, 240, 877 (1965). The substrate employed was partially purified aldose reductase enzyme obtained from calf lens. The results obtained with each compound at a concentration of 10^-6 M are expressed as percent inhibition of enzyme activity.

[1] = tested on: sorbitol accumulation in the sciatic nerve of streptozotocinized (i.e., diabetic) rats; assay: inhibition of sorbitol accumulation in the sciatic nerve of streptozotocinized (diabetic) rats; format: in vivo; conditions: measured at 27 hours, vs untreated, values below 20 not always significant; for % Inhibition at mg/kg Dosage 1.5: 1.5 mg/kg orally at 4, 8 and 24 hours after streptozotocin
Procedure: Spiro-oxazolidindiones prepared as described in the above examples were tested for their ability to reduce or inhibit sorbitol accumulation in the sciatic nerve of streptozotocinized (i.e., diabetic) rats by the procedure essentially described in U.S. Pat. No. 3,821,383. In the present study, the amount of sorbitol accumulation in the sciatic nerves was measured 27 hours after induction of diabetes. The compounds were administered orally at the dose levels indicated at 4, 8 and 24 hours following the administration of streptozotocin. The results obtained in this manner are presented below in terms of percent inhibition afforded by the test compound as compared to the case where no compound was administered (i.e., the untreated animal where sorbitol levels normally rise from approximately […]. tissue to as high as 400 mM/g. tissue in the 27-hour test period). In this test values below 20 are not always experimentally and statistically significant.

What does the source list for O=C1NC(=O)C2(CCOc3ccc(Cl)cc32)O1 (single isomer, unassigned; (-)) [Example 35, (-)-6-Chloro-spiro[4H-2,3-dihydrobenzopyran(4,5')oxazolidin]-2',4'-dione]?
inhibition at 1 µM (aldose reductase): 96%; % Inhibition at mg/kg Dosage 1.5 [1]: 41%; % Inhibition at mg/kg Dosage 5 ([1]; 5 mg/kg orally at 4, 8 and 24 hours after streptozotocin): 67%; % Inhibition at mg/kg Dosage 15 ([1]; 15 mg/kg orally at 4, 8 and 24 hours after streptozotocin): 88%

For O=C1NC(=O)C2(CCOc3ccc(Cl)cc32)O1 (stereo not drawn) [Example 3, 6-Chloro-spiro[4H-2,3-dihydrobenzopyran(4,5')oxazolidin]-2',4'-dione], which inhibition at 1 µM (aldose reductase) is on record?
The inhibition at 1 µM was 86%.

What about the “% Inhibition at 10^-6 M” value (aldose reductase) of the same compound?
Its value is 68%.

And the “% Inhibition at mg/kg Dosage 1.5” value [1]?
Its value is 28%.

How did the inhibition at 1 µM (aldose reductase) turn out when O=C1NC(=O)C2(CCOc3ccc(F)cc32)O1 (stereo not drawn) [Example 28, 6-Fluoro-spiro[4H-2,3-dihydrobenzopyran(4,5')oxazolidin]-2',4'-dione] was run?
Its inhibition at 1 µM is 65%.

And the “% Inhibition at mg/kg Dosage 1.5” value [1]?
The value was 8%.

How did the inhibition at 1 µM (aldose reductase) turn out when O=C1NC(=O)C2(CCOc3ccc(Br)cc32)O1 (stereo not drawn) [Example 29, 6-Bromo-spiro[4H-2,3-dihydrobenzopyran(4,5')oxazolidin]-2',4'-dione] was run?
The inhibition at 1 µM was 100%.

What about the “% Inhibition at 10^-6 M” value (aldose reductase) of the same compound?
Its value is 87%.

And the “% Inhibition at mg/kg Dosage 1.5” value [1]?
Its value is 35%.

Which inhibition at 1 µM (aldose reductase) does the source give for O=C1NC(=O)C2(CCSc3ccccc32)O1 (stereo not drawn) [Example 30, Spiro[4H-2,3-dihydrobenzothiopyran(4,5')oxazolidin]-2',4'-dione] here?
Its inhibition at 1 µM is 42%.

With O=C1NC(=O)C2(CCSc3ccc(F)cc32)O1 (stereo not drawn) [Example 31, 6-Fluoro-spiro[4H-2,3-dihydrobenzothiopyran(4,5')oxazolidin]-2',4'-dione] as the compound, how does the inhibition at 1 µM (aldose reductase) read?
The inhibition at 1 µM was 61%.

O=C1NC(=O)C2(CCOc3c(Cl)cc(Cl)cc32)O1 (stereo not drawn) [Example 32, 6,8-Dichloro-spiro[4H-2,3-dihydrobenzopyran(4,5')oxazolidin]-2',4'-dione] was tested. Which inhibition at 1 µM (aldose reductase) did it give?
The inhibition at 1 µM was 100%.

What about the “% Inhibition at mg/kg Dosage 1.5” value [1] of the same compound?
The value was 44%.

Which inhibition at 1 µM (aldose reductase) does the source give for Cc1cc(Cl)cc2c1OCCC21OC(=O)NC1=O (stereo not drawn) [Example 33, 6-Chloro-8-methyl-spiro[4H-2,3-dihydrobenzopyran(4,5')oxazolidin]-2',4'-dione] here?
The inhibition at 1 µM was 81%.

And the “% Inhibition at 10^-6 M” value (aldose reductase)?
Its value is 99%.

And the “% Inhibition at mg/kg Dosage 1.5” value [1]?
Its value is 33%.

Which results are given for O=C1NC(=O)C2(CCSc3ccc(Cl)cc32)O1 (stereo not drawn) [Example 34, 6-Chloro-spiro[4H-2,3-dihydrobenzothiopyran(4,5')oxazolidin]-2',4'-dione]?
% Inhibition at 10^-6 M (aldose reductase): 70% and 100%; % Inhibition at mg/kg Dosage 1.5 [1]: 14%
